# Test results reported in US20130310306A1, “HUMAN LACTOFERRIN DERIVED PEPTIDES AND THEIR USE” (PharmaSurgics In Sweden AB, priority 2011, published 2013).
# Entries after “also recorded” stand apart in the source; their conditions may differ.
# Columns and labels:
# [1] = system: P. aeruginosa (ATCC 15442); test: MMC99 assay, P. aeruginosa; type: cell-based; conditions: Table 8A
# Experimental: (§1) The antimicrobial effects of the peptide 265 (SEQ ID NO: 27) was analysed by MMC99 (minimal microbicidal concentration) assay against S. aureus (CCUG 1800), MRSA (CCUG 41879), P. aeruginosa (ATCC 15442), E. coli (CCUG 31246), S. pyogenes (CCUG 4207), P. acnes (CCUG 1794T), S. epidermidis (ATCC12228), K. pneumoniae (ATCC 13883), A. baumannii (ATCC 19606), and C. albicans (ATCC 64549). The peptides were purchased from Biopeptide Company (San Diego, Calif., USA) and Bachem AG (Bubendorf, Switzerland) and results are presented in Table 8A and 8B respectively.
# (§2) Peptide was serially diluted in two different assay medium, 1% BHI medium (brain-heart infusion medium) or 50% heat inactivated simulated wound fluid (SWF), and thereafter incubated with the microorganisms for 2 hours. Drops of the suspension were placed on blood agar plates. The MMC99 values, i.e. the lowest peptide concentration needed to achieve a 99% reduction of viable microorganisms, were recorded. As presented in Table 8, the peptide has the ability to kill microorganisms frequently appearing in infections.
# [2] = system: K. pneumoniae (ATCC 13883); test: MMC99 assay, K. pneumoniae; type: cell-based; conditions: Table 8B
# Experimental: as §1, §2
# [3] = system: P. acnes (CCUG 1794T); test: MMC99 assay, P. acnes; type: cell-based; conditions: Table 8A
# Experimental: as §1, §2
# [4] = system: S. aureus (CCUG 1800); test: Minimal microbicidal concentration (MMC99) assay, S. aureus; type: cell-based
# Experimental: Antimicrobial Activity was Measured as Bactericidal Effect on S. Aureus Using Minimal Microbicidal Concentration, MMC99, Assay)
# S. aureus (#1800; CCUG, Gothenburg, Sweden) cultured on blood-agar plates [Columbia agar (Oxoid, Basingstoke, UK) supplemented with 5% defibrinated horse blood (National Veterinary Institute (SVA), Uppsala, Sweden)] were transferred to brain heart infusion broth (3.7% BHI; Difco, BD Diagnostics, Franklin Lakes, N.J., USA) and incubated in a shaker at 250 rpm+37° C. over night. The culture was thereafter be diluted 1:10 in fresh BHI broth and incubated for additional two hours to reach log-phase growth. The bacteria were pelleted and suspended in 1% BHI medium (BHI broth diluted 100 times in ultra-pure water) to a concentration of 10^7 bacteria/ml as estimated by measuring optical density at 600 nm. Peptides were serially diluted by two-fold steps from 160 μM to 1.25 μM in 1% BHI medium. The peptides (100 μl) were thereafter incubated with bacteria (5 μl á 10^7 bact./ml) for 2 hours at +37° C. Drops (5 μl) of the suspension were placed on blood agar plates. The blood agar plates were incubated over night at +37° C. The MMC99 values, i.e. the lowest peptide concentration needed to achieve a 99% reduction of viable bacteria, were recorded (Table 3). The concentration of the bacterial suspension used in the assay was confirmed by viable counts on blood agar plates.
# S. aureus (#1800; CCUG, Gothenburg, Sweden) cultured on blood-agar plates [Columbia agar (Oxoid, Basingstoke, UK) supplemented with 5% defibrinated horse blood (National Veterinary Institute (SVA), Uppsala, Sweden)] were transferred to brain heart infusion broth (3.7% BHI; Difco, BD Diagnostics, Franklin Lakes, N.J., USA) and incubated in a shaker at 250 rpm+37° C. over night. The culture was thereafter be diluted 1:10 in fresh BHI broth and incubated for additional two hours to reach log-phase growth. The bacteria were pelleted and suspended in 1% BHI medium (BHI broth diluted 100 times in ultra-pure water) to a final concentration of 10^7 bacteria/ml as estimated by measuring optical density at 600 nm. Peptides were serially diluted by two-fold steps from 400 μM to 0.78 μM in either 1% BHI medium or in 50% heat inactivated simulated wound fluid [SWF, containing 1 part 0.1% peptone (Oxoid, Basingstoke, UK) in saline and 1 part fetal bovine serum, diluted 2 times in ultra-pure water].
# The peptides (100 μl) were thereafter incubated with bacteria (5 μl á 10^7 bact./ml) for 2 hours at +37° C. Drops (5 μl) of the suspension were placed on blood agar plates. The blood agar plates were incubated over night at +37° C. The MMC99 values, i.e. the lowest peptide concentration needed to achieve a 99% reduction of viable bacteria were recorded (Table 6). The concentration of the bacterial suspension used in the assay was confirmed by viable counts on blood agar plates.
# as §1, §2
# [5] = system: MRSA (CCUG 41879); test: MMC99 assay, MRSA; type: cell-based, methicillin resistant S. aureus; conditions: Table 8A
# Experimental: as §1, §2
# [6] = system: C. albicans (ATCC 64549); test: MMC99 assay, C. albicans; type: cell-based; conditions: Table 8B
# Experimental: as §1, §2
# [7] = system: S. pyogenes (CCUG 4207); test: MMC99 assay, S. pyogenes; type: cell-based; conditions: Table 8A
# Experimental: as §1, §2
# [8] = system: MRSA (CCUG 41879); test: In vivo antimicrobial effect in excision wound model in rats; design: species or system rat; conditions: peptide in H2O 0.1, 0.5 and 2 mg/ml, single administration, two hours, vs control (H2O)
# Text: (§3) FIG. 4. Dose-response effect of peptide 265 (A) on bacterial colonization of infected excision wounds in rats. […] Results are presented as relative bacterial survival (%) compared to control group ±SEM (n=15 wounds). Statistical significance was estimated by Student's t test. *=p<0.05, **=p<0.01, ***=p<0.001.
# The in vivo antimicrobial effects of the peptide 265 (SEQ ID NO: 27) was investigated in an excision wound model in rats. The wounds were inoculated with methicillin resistant S. aureus (MRSA) for two hours, followed by a single administration of peptide or control (H2O) for two hours before termination and harvest of the bacteria.
# [9] = system: S. epidermidis (ATCC12228); test: MMC99 assay, S. epidermidis; type: cell-based; conditions: Table 8B
# Experimental: as §1, §2
# [10] = system: TNF-α production in LPS stimulated THP-1 cells; test: Inhibition of TNF-α production in LPS stimulated THP-1 cells (ELISA); conditions: screen 2, mean relative secretion
# [11] = system: S. aureus; test: Antimicrobial effect in infected wounds, ex vivo model on pig skin; conditions: S. aureus in PBS/serum (50/50); peptide in H2O 0.1, 0.5 and 2 mg/ml, single administration, four hours; vs placebo (H2O)
# Text: as §3, with “5. Dose response” for “4. Dose-response”, “(A),” for “(A)”, “infected” for “infected excision”, “pig skin.” for “rats.”, “(n=10” for “(n=15”
# The antimicrobial effects of the peptide 265 (SEQ ID NO: 27) was investigated in an ex vivo model on pig skin. The wounds were inoculated with S. aureus in the presence of PBS/Serum 50/50. Two hours after inoculation the wounds were treated with a single administration of the peptide or placebo (H2O). Four hours after the treatment bacteria were harvested and viable counts of each wound were determined.
# [12] = system: A. baumannii (ATCC 19606); test: MMC99 assay, A. baumannii; type: cell-based; conditions: Table 8B
# Experimental: as §1, §2
# [13] = system: E. coli (CCUG 31246); test: MMC99 assay, E. coli; type: cell-based; conditions: Table 8A
# Experimental: as §1, §2
sequence,measurement,setting,value
FRQWKRWMRKVFHSWRRW [Peptide 265],MMC99 P. aeruginosa 1% BHI,[1]; 1% BHI,4 µg/mL
same,MMC99 P. aeruginosa 50% SWF,[1]; 50% SWF,134 µg/mL
same,MMC99 K. pneumoniae 1% BHI,[2]; 1% BHI,3 µg/mL
same,MMC99 K. pneumoniae 50% SWF,[2]; 50% SWF,25 µg/mL
same,MMC99 P. acnes 1% BHI,[3]; 1% BHI,<3 µg/mL
same,MMC99 P. acnes 50% SWF,[3]; 50% SWF,50 µg/mL
same,MMC99 S. aureus 1% BHI,"[4]; 1% BHI, Table 8A",4 µg/mL
same,MMC99 S. aureus 50% SWF,"[4]; 50% SWF, Table 8A",8 µg/mL
same,MMC99 μM in 1% BHI medium,"[4]; screen 2, 1% BHI medium, 2 hours",6.25 µM
same,MMC99 μM in 50% SWF,"[4]; screen 2, 50% heat inactivated simulated wound fluid, 2 hours",12.5 µM
same,MMC99 MRSA 1% BHI,[5]; 1% BHI,6 µg/mL
same,MMC99 MRSA 50% SWF,[5]; 50% SWF,50 µg/mL
same,MMC99 C. albicans 1% BHI,[6]; 1% BHI,6 µg/mL
same,MMC99 C. albicans 50% SWF,[6]; 50% SWF,100 µg/mL
same,MMC99 S. pyogenes 1% BHI,[7]; 1% BHI,<3 µg/mL
same,MMC99 S. pyogenes 50% SWF,[7]; 50% SWF,25 µg/mL
same,bacterial colonization of infected excision wounds in rats,[8],significant reduction in bacterial counts in a dose response fashion; also recorded: pronounced antimicrobial effect
same,MMC99 S. epidermidis 1% BHI,[9]; 1% BHI,<2 µg/mL
same,MMC99 S. epidermidis 50% SWF,[9]; 50% SWF,6 µg/mL
same,TNF-α at 40 μM peptide,"[10]; stimulated level without peptide = 100%, basal = 0%, 40 μM peptide",13.8%
same,TNF-α at 4 μM peptide,[10]; 4 μM peptide,87.0%
same,TNF-α at 10 μM peptide,[10]; 10 μM peptide,31.1%
same,bacterial colonization of infected wounds in pig skin,[11],significant reduction in bacterial counts with a dose response relation; also recorded: highly effective
same,MMC99 A. baumannii 1% BHI,[12]; 1% BHI,<2 µg/mL
same,MMC99 A. baumannii 50% SWF,[12]; 50% SWF,12 µg/mL
same,MMC99 E. coli 1% BHI,[13]; 1% BHI,5 µg/mL
same,MMC99 E. coli 50% SWF,[13]; 50% SWF,67 µg/mL
